Measured values from patent publication US11970448B2, “Monomers capable of dimerizing in an aqueous solution, and methods of using same” (CORNELL UNIVERSITY, priority 2011, dated 2024).
Like-named read-outs stand apart in the source and are kept apart here.

Molecular target: T1, recominbant human tryptase, beta, from lung (Homo sapiens, UniProt P20231)
T1 construct: purchased Promega or Enzo Life Sciences G5631 or BML-SE418
Assay: Inhibition of tryptase activity by monomers and multimers (Boc-Gln-Ala-Arg-AMC fluorescence)
Format: biochemical
Conditions: monomers against tryptase
In short: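 Recombinant human lung β-tryptase (1 nM final; stock with heparin sulfate and 1 M NaCl) preincubated with test substance, then 200 μM Boc-Gln-Ala-Arg-AMC added in 50 mM HEPES, 150 mM NaCl, 100 μM EDTA, 0.02% Tween-20, pH 7.4. AMC fluorescence (ex 367/em 468 nm) read every 30 s for 15–30 min; IC50 from Vmax concentration-response curves.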

[1] = Table 5, read-out: Monomer IC50 range
[2] = read-out: IC50 range group of additional monomers (boronic acid, benzooxaborole, ligands)
[3] = entry marked (1:10), read-out: IC50 range group of additional monomers marked (1:10)

T1 sequence (P20231 31-275): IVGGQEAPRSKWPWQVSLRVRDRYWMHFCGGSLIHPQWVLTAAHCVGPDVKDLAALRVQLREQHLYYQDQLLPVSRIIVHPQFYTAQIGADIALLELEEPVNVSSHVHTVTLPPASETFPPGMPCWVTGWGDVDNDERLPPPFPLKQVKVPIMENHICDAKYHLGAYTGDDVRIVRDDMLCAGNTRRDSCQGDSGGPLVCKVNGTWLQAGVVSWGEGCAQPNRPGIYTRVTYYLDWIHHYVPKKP

Structure (SMILES) | IC50 [1] | IC50 [2] | IC50 [3]
NCc1ccc2c(c1)C1(CCN(C(=O)c3cc(O)c(O)c(Cl)c3)CC1)CO2 [T78SPIRO, (5-(aminomethyl)-2H-spiro[benzofuran-3,4′-piperidine]-1′-yl)(3-chloro-4,5-dihydroxyphenyl)methanone] | 0.1 to 1000 nM | 0.1 to 1000 nM | 
CC(O)(Cn1ccc2cc(C(=O)N3CCC(c4cccc(CN)c4)CC3)ccc21)C(=O)O (stereo not shown) [T81, 3-(5-(4-(3-(aminomethyl)phenyl)piperidine-1-carbonyl)-1H-indol-1-yl)-2-hydroxy-2-methylpropanoic acid] | 0.1 to 1000 nM |  | 0.1 to 1000 nM
CC(O)(Cn1ccc2ccc(C(=O)N3CCC(c4cccc(CN)c4)CC3)cc21)C(=O)O (stereo not shown) [T82, 3-(6-(4-(3-(aminomethyl)phenyl)piperidine-1-carbonyl)-1H-indol-1-yl)-2-hydroxy-2-methylpropanoic acid] | 0.1 to 1000 nM |  | 0.1 to 1000 nM
NCc1cccc(C2CCN(C(=O)c3ccc4c(ccn4CC(O)(C(=O)O)c4ccccc4)c3)CC2)c1 (stereo not shown) [T83, 3-(5-(4-(3-(aminomethyl)phenyl)piperidine-1-carbonyl)-1H-indol-1-yl)-2-hydroxy-2-phenylpropanoic acid] | 0.1 to 1000 nM |  | 0.1 to 1000 nM
NCc1cccc(C2CCN(C(=O)c3ccc4ccn(CC(O)(C(=O)O)c5ccccc5)c4c3)CC2)c1 (stereo not shown) [T84, 3-(6-(4-(3-(aminomethyl)phenyl)piperidine-1-carbonyl)-1H-indol-1-yl)-2-hydroxy-2-phenylpropanoic acid] | 0.1 to 1000 nM |  | 0.1 to 1000 nM
CONC(=O)c1ccc(CC(=O)N2CCC(c3cccc(CN)c3)CC2)cc1O [T85 Å] |  |  | 0.1 to 1000 nM
NCc1cccc(C2CCN(C(=O)/C=C/c3ccc(O)c(C(N)=O)c3)CC2)c1 [T86, (E)-5-(3-(4-(3-(aminomethyl)phenyl)piperidin-1-yl)-3-oxoprop-1-enyl)-2-hydroxybenzamide] | 1000 to 10000 nM | 1000 to 10000 nM | 
CONC(=O)c1cc(C(=O)N2CCC(c3cccc(CN)c3)CC2)ccc1O [T92, 5-(4-(3-(aminomethyl)phenyl)piperidine-1-carbonyl)-2-hydroxy-N-methoxybenzamide] | 1000 to 10000 nM | 1000 to 10000 nM | 
NCc1cccc(C2CCN(C(=O)c3ccc(O)c(C(=O)NOc4ccccc4)c3)CC2)c1 [T92OPH] |  | 1000 to 10000 nM | 
NCc1ccc2c(c1)C1(CCN(C(=O)c3ccc(O)c(C(=O)NOc4ccccc4)c3)CC1)CO2 [T92PHSPIRO] |  | 1000 to 10000 nM | 
CONC(=O)c1cc(C(=O)N2CCC3(CC2)COc2ccc(CN)cc23)ccc1O [T92SPIRO] |  | 0.1 to 1000 nM | 
NCc1cccc(C2CCN(C(=O)c3cc(=O)oc4c(O)c(O)ccc34)CC2)c1 [T96] |  | 1000 to 10000 nM | 
NCc1cccc(C2CCN(C(=O)Cc3cc(=O)oc4cc(O)c(O)cc34)CC2)c1 [T97, 4-(2-(4-(3-(aminomethyl)phenyl)piperidin-1-yl)-2-oxoethyl)-6,7-dihydroxy-2H-chromen-2-one] | 1000 to 10000 nM | 1000 to 10000 nM | 
NCc1cccc(C2CCN(C(=O)Cc3cc(=O)oc4c(O)c(O)ccc34)CC2)c1 [T98] |  | 10000 to 65000 nM | 
Cc1c(CC(=O)N2CCC(c3cccc(CN)c3)CC2)c(=O)oc2cc(O)c(O)cc12 [T99] |  | 1000 to 10000 nM | 
NCc1cccc(C2CCN(C(=O)c3cc4cc(O)c(O)cc4oc3=O)CC2)c1 [T100] | 10000 to 65000 nM | 10000 to 65000 nM | 
Cc1c(CC(=O)N2CCC(c3cccc(CN)c3)CC2)c(=O)oc2c(O)c(O)ccc12 [T101] | 0.1 to 1000 nM | 0.1 to 1000 nM | 
NCc1cccc(C2CCN(C(=O)c3cc4ccc(O)c(O)c4oc3=O)CC2)c1 [T102] | 0.1 to 1000 nM |  | 0.1 to 1000 nM
NCc1cccc(C2CCN(C(=O)c3cccc(OCC(O)(C(=O)O)C4CCCC4)c3)CC2)c1 (stereo not shown) [T103, 3-(3-(4-(3-(aminomethyl)phenyl)piperidine-1-carbonyl)phenoxy)-2-cyclopentyl-2-hydroxypropanoic acid] | 0.1 to 1000 nM |  | 0.1 to 1000 nM
COc1cc(C(=O)N2CCC3(CC2)COc2ccc(CN)cc23)cc(O)c1O [T104SPIRO] |  | 0.1 to 1000 nM | 
COc1cc(C(=O)N2CCC(c3cccc(CN)c3)CC2)cc(O)c1O [T104] |  | 0.1 to 1000 nM | 
Cc1cc(C(=O)N2CCC(c3cccc(CN)c3)CC2)cc(-c2cccc(B(O)O)c2)c1C [T107] |  | 1000 to 10000 nM | 

Structure (SMILES) | IC50 [1] | IC50 [2] | IC50 [3]
NCc1ccc2c(c1)C1(CCN(C(=O)c3ccc(Cl)c(-c4cccc(B(O)O)c4)c3)CC1)CO2 [T109SPIRO] |  | 0.1 to 1000 nM | 
NCc1ccc2c(c1)C1(CCN(C(=O)c3cccc(-c4cccc5c4COB5O)c3)CC1)CO2 [T112SPIRO] |  | 1000 to 10000 nM | 
Cc1cc(C(=O)N2CCC3(CC2)COc2ccc(CN)cc23)cc(CO)c1O [T113SPIRO] |  | 0.1 to 1000 nM | 
CONC(=O)c1cc(C(=O)N2CCC3(CC2)COc2ccc(CN)cc23)cc(C)c1O [T114Spiro] |  | 0.1 to 1000 nM | 
CSc1sc(C(=O)N2CCC3(CC2)COc2ccc(CN)cc23)cc1-c1cccc(B(O)O)c1 [T116SPIRO] |  |  | 0.1 to 1000 nM
CSc1sc(C(=O)N2CCC3(CC2)COc2ccc(CN)cc23)cc1-c1cccc2c1C(C)OB2O (stereo not shown) [T117GEMMONO] |  | 0.1 to 1000 nM | 
CSc1sc(C(=O)N2CCC3(CC2)COc2ccc(CN)cc23)cc1-c1cccc2c1COB2O [T117SPIRO] |  | 0.1 to 1000 nM | 
CC(C)(O)c1ccc(C(=O)N2CCC(c3cccc(CN)c3)CC2)cc1O [T126] |  | 1000 to 10000 nM | 
COc1ccc(C(=O)N2CCC(c3cccc(CN)c3)CC2)c(O)c1O [T127] |  | 1000 to 10000 nM | 
NCc1ccc2c(c1)C1(CCN(C(=O)c3cccc(-c4ccc(F)c(B(O)O)c4)c3)CC1)CO2 [T131SPIRO] |  | 0.1 to 1000 nM | 
NCc1ccc2c(c1)C1(CCN(C(=O)c3cccc(-c4cc(F)cc(B(O)O)c4)c3)CC1)CO2 [T132SPIRO] |  | 1000 to 10000 nM | 
NCc1ccc2c(c1)C1(CCN(C(=O)c3cccc(-c4cccc(B(O)O)c4F)c3)CC1)CO2 [T133SPIRO] |  | 0.1 to 1000 nM | 
CONC(=O)c1cc(C)cc(C(=O)N2CCC(c3cccc(CN)c3)CC2)c1O [T136A] |  | 0.1 to 1000 nM | 
CN(Cc1ccccc1B(O)O)c1cccc2c(C(=O)N3CCC(c4cccc(CN)c4)CC3)cccc12 [T143] |  | 1000 to 10000 nM | 
Cc1c(CC(=O)N2CCC(c3cccc(CN)c3)CC2)c(=O)oc2cc(N(C)Cc3ccccc3B(O)O)ccc12 [T144] |  | 1000 to 10000 nM | 
CN(Cc1ccccc1B(O)O)c1cccc(C(=O)N2CCC(c3cccc(CN)c3)CC2)c1 [T146] |  | 10000 to 65000 nM | 
CN(Cc1ccccc1B(O)O)c1ccc(C(=O)N2CCC(c3cccc(CN)c3)CC2)cc1 [T147] |  | 1000 to 10000 nM | 
CN(Cc1ccccc1B(O)O)c1ccc2c(C(=O)N3CCC(c4cccc(CN)c4)CC3)cccc2c1 [T154] |  | 1000 to 10000 nM | 
CN(C)c1ccc(B(O)O)cc1-c1cccc(C(=O)N2CCC3(CC2)COc2ccc(CN)cc23)c1 [T155SPIRO] |  | 1000 to 10000 nM | 
NCc1cccc(C2CCN(C(=O)c3cnc4c(B(O)O)cccc4c3)CC2)c1 [T156] |  | 0.1 to 1000 nM | 
CC(C)(C)ONC(=O)c1cc(C(=O)N2CCC3(CC2)COc2ccc(CN)cc23)ccc1O [T920TBSPIRO] |  | 1000 to 10000 nM | 
